The values below come from patent US10570129B2 (Zoetis Services LLC, priority 2015, dated 2020).

One assay concerns Haemonchus contortus L3. As to the kind of experiment: microbe, parasite or virus in culture. The settings on record: for minimal effective concentration: Haemonchus contortus, 96 h, read-out: HcL3 Minimal Effective Concentration (MEC). The format is cell-based.
A further assay concerns D. immitis microfilariae. Put plainly: Dirofilaria immitis, microfilariae (DiMF) in vitro motility assay. The format is cell-based. The note with it: for minimal effective concentration: Dirofilaria immitis, 72 h, read-out: DiMF minimally effective dose (MEC).
The subject of assay [1] is Trichostrongylus colubriformis. Put plainly: Jird efficacy model. It counts as in vivo. The note with it: Trichostrongylus colubriformis, sc, 96 h, read-out: Jird % (percentage efficacy).

With `O=C(NCc1ccnc(F)c1)n1c2c(c3cc(C(F)(F)F)ccc31)CN(C/C=C/c1ccc(Cl)cc1)CC2` [Example 421, (E)-2-(3-(4-chlorophenyl)allyl)-N-((2-fluoropyridin-4-yl)methyl)-8-(trifluoromethyl)-1,2,3,4-tetrahydro-5H-pyrido[4,3-b]indole-5-carboxamide], the minimal effective concentration in the assay on Haemonchus contortus L3 was 3.3 µM; in the assay on D. immitis microfilariae, 12.7 µM. Moreover, the inhibition in vivo at 10 mg/kg in assay [1] was 100%.
For the compound `O=C(NCc1ccnc(F)c1)n1c2c(c3ccc(Cl)cc31)CN(C/C=C/c1ccc(F)c(F)c1)CC2` [Example 228, (E)-7-chloro-2-(3-(3,4-difluorophenyl)allyl)-N-((2-fluoropyridin-4-yl)methyl)-1,2,3,4-tetrahydro-5H-pyrido[4,3-b]indole-5-carboxamide], the minimal effective concentration in the assay with Haemonchus contortus L3 was found to be 1.8 µM; in the assay on D. immitis microfilariae, 3.3 µM. Moreover, the inhibition in vivo at 10 mg/kg in assay [1] was 98%.
Turning to `N#Cc1cc(/C=C/CN2CCc3c(c4cc(Cl)ccc4n3C(=O)NCc3ccnc(Cl)c3)C2)ccc1F` [Example 234, (E)-8-chloro-N-((2-chloropyridin-4-yl)methyl)-2-(3-(3-cyano-4-fluorophenyl)allyl)-1,2,3,4-tetrahydro-5H-pyrido[4,3-b]indole-5-carboxamide], the results for the minimal effective concentration in the assay with Haemonchus contortus L3 and with D. immitis microfilariae were 0.1 µM and 3.3 µM, respectively.
As to `NC(=O)c1ccc2c3c(n(C(=O)NCc4ccnc(Cl)c4)c2c1)CCN(C/C=C/c1ccc(Cl)cc1)C3` [Example 464, (E)-2-(3-(4-chlorophenyl)allyl)-N^5-((2-chloropyridin-4-yl)methyl)-1,2,3,4-tetrahydro-5H-pyrido[4,3-b]indole-5,7-dicarboxamide], the minimal effective concentration in the assay with Haemonchus contortus L3 is 3.3 µM; in the assay on D. immitis microfilariae, 7.6 µM.
`O=C(NCc1ccnc(Cl)c1)n1c2c(c3ccc(OC(F)(F)F)cc31)CN(Cc1ccc3nc(Cl)ccc3c1)CC2` [Example 367, N-((2-chloropyridin-4-yl)methyl)-2-((2-chloroquinolin-6-yl)methyl)-7-(trifluoromethoxy)-1,2,3,4-tetrahydro-5H-pyrido[4,3-b]indole-5-carboxamide]: the results for the minimal effective concentration in the assay with Haemonchus contortus L3 and in the assay on D. immitis microfilariae were 10 µM and greater than 100 µM, respectively.
In the same order, the values of `N#Cc1ccc2c3c(n(C(=O)NCc4ccnc(Cl)c4)c2c1)CCN(C/C=C/c1cc(Br)ccc1F)C3` [Example 11, (E)-2-(3-(5-bromo-2-fluorophenyl)allyl)-N-((2-chloropyridin-4-yl)methyl)-7-cyano-1,2,3,4-tetrahydro-5H-pyrido[4,3-b]indole-5-carboxamide] are 1.8 µM and greater than 100 µM.
With `N#Cc1ccc2c(c1)c1c(n2C(=O)NCc2ccnc(Cl)c2)CCN(C/C=C/c2ccc(F)cc2Cl)C1` [Example 87, (E)-2-(3-(2-chloro-4-fluorophenyl)allyl)-N-((2-chloropyridin-4-yl)methyl)-8-cyano-1,2,3,4-tetrahydro-5H-pyrido[4,3-b]indole-5-carboxamide], the figures for the minimal effective concentration with Haemonchus contortus L3 and in the assay with D. immitis microfilariae were 0.2 µM and 5.7 µM, respectively.
For `O=C(NCc1ccnc(Cl)c1)n1c2c(c3cc(Br)c(Cl)cc31)CN(C/C=C/c1ccc(Cl)cc1)CC2` [Example 196, (E)-8-bromo-7-chloro-2-(3-(4-chlorophenyl)allyl)-N-((2-chloropyridin-4-yl)methyl)-1,2,3,4-tetrahydro-5H-pyrido[4,3-b]indole-5-carboxamide] the same measures were 0.3 µM and 5.7 µM.
In the same order, the values of `O=C(NCc1ccnc(F)c1)n1c2c(c3ccc(OC(F)(F)F)cc31)CN(C/C=C/c1cc(F)cc(Cl)c1)CC2` [Example 380, (E)-2-(3-(3-chloro-5-fluorophenyl)allyl)-N-((2-fluoropyridin-4-yl)methyl)-7-(trifluoromethoxy)-1,2,3,4-tetrahydro-5H-pyrido[4,3-b]indole-5-carboxamide] are greater than 100 µM and 33 µM.
On to `N#Cc1ccc(/C=C/CN2CCc3c(c4c(Cl)c(F)ccc4n3C(=O)NCc3ccnc(Cl)c3)C2)cc1` [Example 303, (E)-9-chloro-N-((2-chloropyridin-4-yl)methyl)-2-(3-(4-cyanophenyl)allyl)-8-fluoro-1,2,3,4-tetrahydro-5H-pyrido[4,3-b]indole-5-carboxamide], for which the minimal effective concentration in the assay on Haemonchus contortus L3 is 1 µM; in the assay on D. immitis microfilariae it was 57.4 µM.
For the compound `O=C(NCc1ccnc(Cl)c1)n1c2c(c3ccc(OC(F)(F)F)cc31)CN(C/C=C/c1ccc(C(F)(F)F)cc1)CC2` [Example 362, (E)-N-((2-chloropyridin-4-yl)methyl)-7-(trifluoromethoxy)-2-(3-(4-(trifluoro-methyl)phenyl)allyl)-1,2,3,4-tetrahydro-5H-pyrido[4,3-b]indole-5-carboxamide], the minimal effective concentration is greater than 100 µM with Haemonchus contortus L3 and 31.5 µM in the assay with D. immitis microfilariae.
In the same order, the values of `O=C(NCc1ccnc(F)c1)n1c2c(c3cc(Cl)ccc31)CN(C/C=C/c1ccc(Cl)c(Cl)c1)CC2` [Example 261, (E)-8-chloro-2-(3-(3,4-dichlorophenyl)allyl)-N-((2-fluoropyridin-4-yl)methyl)-1,2,3,4-tetrahydro-5H-pyrido[4,3-b]indole-5-carboxamide] are 1 µM and 10 µM.
In the same order, the values of `O=C(NCc1ccnc(F)c1)n1c2c(c3ccc(Cl)cc31)CN(C/C=C/c1ccc(F)c(Cl)c1)CC2` [Example 227, (E)-7-chloro-2-(3-(3-chloro-4-fluorophenyl)allyl)-N-((2-fluoropyridin-4-yl)methyl)-1,2,3,4-tetrahydro-5H-pyrido[4,3-b]indole-5-carboxamide] are 5.7 µM and 1.8 µM.
In the same order, the values of `O=C(NCc1ccnc(Cl)c1)n1c2c(c3c(C(F)(F)F)cc(F)cc31)CN(C/C=C/c1ccc(Cl)cc1)CC2` [Example 322, (E)-2-(3-(4-chlorophenyl)allyl)-N-((2-chloropyridin-4-yl)methyl)-7-fluoro-9-(trifluoromethyl)-1,2,3,4-tetrahydro-5H-pyrido[4,3-b]indole-5-carboxamide] are 5.7 µM and 10 µM.
In the case of `O=C(NCc1ccnc(F)c1)n1c2c(c3cc(F)c(Cl)cc31)CN(C/C=C/c1ccc(F)c(Cl)c1)CC2` [Example 313, (E)-7-chloro-2-(3-(3-chloro-4-fluorophenyl)allyl)-8-fluoro-N-((2-fluoro-pyridin-4-yl)methyl)-1,2,3,4-tetrahydro-5H-pyrido[4,3-b]indole-5-carboxamide], the minimal effective concentration came out at 0.5 µM in the assay on Haemonchus contortus L3 and 3.3 µM in the assay with D. immitis microfilariae.
For “(E)-N-((2-chloropyridin-4-yl)methyl)-2-(3-(3,4-dichlorophenyl)allyl)-9-methyl-1,2,3,4-tetrahydro-5H-pyrido[4,3-b]indole-5-carboxamide [Example 148]”, the “HcL3 Minimal Effective Concentration (MEC)” value in the assay with Haemonchus contortus L3 was 5.7 µM. Also, the “DiMF minimally effective dose (MEC)” value with D. immitis microfilariae (decrease in microfilariae motility by subjective visual assessment, observed at 72 hours) turned out to be 10.0 µM.
As to `O=C(NCc1ccnc(Cl)c1)n1c2c(c3cc(Cl)c(C(F)(F)F)cc31)CN(C/C=C/c1ccc(Cl)cc1)CC2` [Example 328, (E)-8-chloro-2-(3-(4-chlorophenyl)allyl)-N-((2-chloropyridin-4-yl)methyl)-7-(trifluoromethyl)-1,2,3,4-tetrahydro-5H-pyrido[4,3-b]indole-5-carboxamide], the minimal effective concentration in the assay on Haemonchus contortus L3 came out at 0.3 µM; in the assay on D. immitis microfilariae it was 33 µM.
For `N#Cc1ccc2c(c1)c1c(n2C(=O)NCc2ccnc(Cl)c2)CCN(C/C=C/c2ccc(Cl)c(Cl)c2)C1` [Example 93, (E)-N-((2-chloropyridin-4-yl)methyl)-8-cyano-2-(3-(3,4-dichlorophenyl)allyl)-1,2,3,4-tetrahydro-5H-pyrido[4,3-b]indole-5-carboxamide] the same measures were 0.7 µM and 2.4 µM.
For `O=C(NCc1ccnc(Cl)c1)n1c2c(c3cc(F)ccc31)CN(C/C=C/c1ccc(Cl)c(Cl)c1)CC2` [Example 167, (E)-N-((2-chloropyridin-4-yl)methyl)-2-(3-(3,4-dichlorophenyl)allyl)-8-fluoro-1,2,3,4-tetrahydro-5H-pyrido[4,3-b]indole-5-carboxamide] the same measures were 0.3 µM and 33 µM.
Take `N#Cc1ccc2c3c(n(C(=O)NCc4ccnc(Cl)c4)c2c1)CCN(C/C=C/c1ccc(Cl)c(F)c1F)C3` [Example 15, (E)-2-(3-(4-chloro-2,3-difluorophenyl)allyl)-N-((2-chloropyridin-4-yl)methyl)-7-cyano-1,2,3,4-tetrahydro-5H-pyrido[4,3-b]indole-5-carboxamide]: the values for the minimal effective concentration with Haemonchus contortus L3 and with D. immitis microfilariae were 1 µM and greater than 100 µM, respectively.
For the compound `O=C(NCc1ccnc(Cl)c1)n1c2c(c3ccc(Cl)cc31)CN(C/C=C/c1ccc(Cl)c(Cl)c1)CC2` [Example 215, (E)-7-chloro-N-((2-chloropyridin-4-yl)methyl)-2-(3-(3,4-dichlorophenyl)allyl)-1,2,3,4-tetrahydro-5H-pyrido[4,3-b]indole-5-carboxamide], the minimal effective concentration in the assay on Haemonchus contortus L3 was 0.5 µM; with D. immitis microfilariae, 10 µM.
For `O=C(NCc1ccnc(Cl)c1)n1c2c(c3cc(Cl)c(Cl)cc31)CN(C/C=C/c1ccc(Cl)c(F)c1)CC2` [Example 274, (E)-7,8-dichloro-2-(3-(4-chloro-3-fluorophenyl)allyl)-N-((2-chloropyridin-4-yl)methyl)-1,2,3,4-tetrahydro-5H-pyrido[4,3-b]indole-5-carboxamide] the same measures were 1.8 µM and 33 µM.
